Source: patent publication US20240390355A1, “IRHOM2 INHIBITORS AND USES THEREOF” (NEW YORK SOCIETY FOR THE RELIEF OF THE RUPTURED AND …, priority 2021, published 2024)

Legend:
Assay type in all cases: cell-based
[1] = test system: TGFα release from HEK-293 cells; assay: Counter screen (Example 4a): PMA-stimulated TGFα release from HEK-293 cells, AP readout; conditions: Homo sapiens, HEK293, HEK-293 cells expressing TGFα-AP, PMA 100 ng/mL, 2 h, read-out: Counter Screen XC50 TGFα
Experimental: (§1) A tertiary counterscreen was also performed to monitor the release of TGFα, which is a substrate of iRhom1/ADAM17 and iRhom2/ADAM17, so its release should not be blocked by an iRhom2-selective inhibitor (Maretzky T et al. (July 2013), “iRhom2 controls the substrate selectivity of stimulated ADAM17-dependent ectodomain shedding”, PNAS 110(28): 11433-11438; and Li X et al. (May 2015), “iRhoms 1 and 2 are essential upstream regulators of ADAM17-dependent EGFR signaling”, PNAS 112(19): 6080-6085).
(§2) First, expression plasmids for alkaline phosphatase (AP)-fused KL2 and TGFα were designed and generated through gene synthesis followed by subcloning into the pcDNA3.1(+)/Hygro expression vector. […] Subsequently, DNA amplifications were performed to obtain sufficient amounts of the expression vectors. The quality of DNA and gene sequences were confirmed through restriction digest and Sanger sequencing. In parallel, cell culture of THP-1 and HEK-293 cells was initiated. Master and working cell banks were prepared. Both cell lines were scaled up and transfected with the respective constructs by electroporation. During cell culturing, cell density and viability were monitored to ensure optimal conditions for the transfections. After PMA stimulation, AP-coupled KL2 or TGFα were detected by measurement of AP activity in the supernatant. […] In contrast, THP-1 cells turned out to be not a suitable transfection host resulting in a loss of cell viability after transfection. The decision was made to proceed with HEK-293 for both selectivity assays and to establish polyclonal cell lines stably expressing AP-coupled KL2 or TGFα.
(§3) After electroporation, cells were further cultured in presence of selection antibiotics, hygromycin B, to generate stably transfected polyclonal cell pools. For both assays, KL2 and TGFα shedding, the respective selected pool turned out to be suitable. Final assay conditions were determined for the selected pools. For all experiments, batimastat (30 μM) was used as positive control for full inhibition of KL2 or TGFα shedding.
(§4) 60 μL of cells (20,000/well) were added to a sterile 384-well plate. After incubation overnight at 37° C. (5% CO2), 50 μL medium were removed and 20 μL of prediluted compounds were added to the cells. After incubation for 15 min, 20 μL of PMA (100 ng/mL final conc.) were added. The cells were incubated for 2 h at 37° C. (5% CO2). Then, 20 μL of the supernatant was transferred to a fresh plate and 20 μL of pNPP (5 mM final conc.) was added. The AP reaction was performed for 1 h at RT. The reaction was stopped by addition of 20 μL of NaOH (1 M final conc.) and the absorbance of pNP was measured at 405 nm.

[2] = test system: KL2 release from HEK-293 cells; assay: Secondary screen (Example 3a): PMA-stimulated KL2 release from HEK-293 cells, AP readout; conditions: Homo sapiens, HEK293, HEK-293 cells expressing KL2-AP, PMA 500 ng/mL, 2 h, read-out: Secondary Screen XC50 KL2
Experimental: (§5) Two separate screens to identify novel small molecule inhibitors of iRhom2/ADAM17 activity were developed. […] Therefore, the primary screen for small molecule inhibitors of iRhom2/ADAM17 was a screen for inhibitors that blocked the release of TNFα from LPS-stimulated THP-1 human myeloid cells, a process that depends on iRhom2 and ADAM17. Since the release of TNFα from THP-1 cells can be blocked at many stages of the LPS/TLR4/iRhom2/ADAM17 pathway, a secondary screen was performed for another iRhom2/ADAM17 selective substrate, Kit-ligand 2 (KL-2) (Maretzky T et al. (July 2013), “iRhom2 controls the substrate selectivity of stimulated ADAM17-dependent ectodomain shedding”, PNAS 110(28): 11433-11438) in a different human cell type, human embryonic kidney cells (HEK 293).
as §2, §3
as §4, with “of cells (40,000/well) were added” for “of cells (20,000/well) were added”, “of PMA (500 ng/mL final” for “of PMA (100 ng/mL final”, “was added. AP reaction” for “was added. The AP reaction”

[3] = test system: TNFα release from THP-1 cells; assay: Primary screen (Example 1a): LPS-stimulated TNFα release from THP-1 cells, HTRF; conditions: Homo sapiens, 100 ng/mL LPS, 3 h, normalised to 50 μM Batimastat, read-out: Primary Screen XC50 TNFα
Experimental: as §5
THP-1 cells were plated in 384 or 1,536 wells and transferred on the ultra-high throughput screening (uHTS) platform Mark III, and TNFα shedding was initiated by LPS stimulation of THP-1 cells. The extent of released TNFα was detected with the corresponding HTRF antibodies labeled with europium cryptate (donor) and d2 (acceptor). The HTRF signal was generated by proximity of europium cryptate and d2. All detection reagents were purchased from Cisbio. TNFα detection was performed according to the manufacturer's protocol (Product Insert for Cisbio TNFα (h) Kit Part #62HTNFAPEG & 62HTNFAPEH;
7.5 nL compound and controls in DMSO [10 μM in assay; 0.25% DMSO in 3 [μL Assay] were dissolved in 2 μL cell suspension [2.4E6/mL; 4800 cells/well; culture w/o PenStrep], pre-incubated at 37° C., 5% CO2, for 15 min with 1 μL LPS [100 ng/mL in 3 μL assay]. The cells were incubated at 37° C., 5% CO2, for 3 h with 2 μL of the HTRF-mix [1:300 f.c.]. After an incubation at room temperature for 2 h or longer, the HTRF readout was performed. Then data evaluation for normalization against the 50 μM Batimastat control (=100% […]) was applied. As an additional control, 300 nM Batimastat was used to monitor performance of cells and assay sensitivity over time.

[4] = test system: KL2 release from HEK-293 cells; assay: Secondary screen (Example 3b): PMA-stimulated KL2 release from HEK-293 cells, AP readout; conditions: Homo sapiens, HEK293, HEK-293 cells expressing KL2-AP, PMA 100 ng/mL, 2 h, read-out: Secondary Screen IC50 KitL2
Experimental: as §5
(§6) Expression plasmids for alkaline phosphatase (AP)-fused human KL2 and TGFα had been previously designed and generated through gene synthesis followed by subcloning into the pcDNA3.1(+)/Hygro expression vector. […] Subsequently, DNA amplifications were performed to obtain sufficient amounts of the expression vectors. The quality of DNA and gene sequences were confirmed through restriction digest and Sanger sequencing. In parallel, cell culture of HEK-293 cells was initiated. Master and working cell banks were prepared, scaled up and transfected with the respective constructs by electroporation. During cell culturing, cell density and viability were monitored to ensure optimal conditions for the transfections. After PMA stimulation, AP-coupled KL2 or TGFα were detected by measurement of AP activity in the supernatant.
as §3, with “(BB94, 10” for “(30”
(§7) The wells of sterile 384-well flat bottom clear plates for KL2-AP assays were coated with 10 μL of 0.1 mg/mL poly-d-lysine for 3-4 hr at 25° C. or overnight at 4° C., then washed 2× with PBS and patted dry. 60 μL of cells (40,000/well) were added to the sterile 384-well plate and incubated in Optimem (with 2% FCS and 1% Pen-strep) overnight at 37° C. (5% CO2). After incubation overnight, 55 μL medium were removed with a BioTek EL406 and 10 μL of prediluted compounds were added to the cells for a final concentration of 20 μM. After incubation for 15 min, 15 μL of PMA (100 ng/mL final conc.) were added. The cells were incubated for 2 h at 37° C. (5% CO2). Then, the plates were centrifuged for 5 min at 1000 rpm and 3 μL of the supernatant was transferred to a fresh 384 well plate and 9 μL of AP Balance Buffer was added per well. 12 μL of pNPP p-nitrophenyl phosphate (final 1 M pNPP) was added. AP reaction was performed for 1 h at 37° C. The reaction was stopped by addition of 12 μL of NaOH (1 M final conc.), the plates were centrifuged to remove air bubbles and the absorbance of pNP was measured at 405 nm.

[5] = test system: TNFα release from THP-1 cells; assay: Primary screen (Example 1b): LPS-stimulated TNFα release from THP-1 cells, overnight pre-incubation, HTRF; conditions: Homo sapiens, overnight with inhibitor, 100 ng/mL LPS, 3 h, normalised to 10 μM Batimastat
Experimental: as §5
THP-1 cells were plated in low volume 384 wells (10,000 cells per well in 12.6 μL RPMI medium) together with inhibitors or 10 μM BB94 and incubated over night. The next day, TNFα shedding was initiated by stimulation of THP-1 cells with 100 ng/mL LPS (1.8 μL of an 800 ng/mL LPS stock) for 3 hrs at 37° C. The extent of released TNFα was detected with the corresponding HTRF antibodies labeled with europium cryptate (donor) and d2 (acceptor). The HTRF signal was generated by proximity of europium cryptate and d2. All detection reagents were purchased from Cisbio. TNFα detection was performed according to the manufacturer's protocol (Product Insert for Cisbio TNFα (h) Kit Part #62HTNFAPEG & 62HTNFAPEH;
Low volume 384 well plates were pre-coated with small molecule library compounds for a final concentration of 20 μM in a 15 μL reaction, or 0.75 μL of 200 μM stock of BB94 in 5% DMSO (final concentration 0.25%). 12.6 μL of cell suspension [8E5/mL; 10,000 cells/well; culture RPMI medium] and pre-incubated at 37° C., 5% CO2, over night. The next day, 1.8 μL of an 800 ng/mL LPS stock was added [final concentration 100 ng/mL in 15 μL assay] and the cells were incubated at 37° C., 5% CO2, for 3 h. Subsequently, 3 μL of the HTRF-mix [used at 1:3 dilution of cisbio HTRF human TNF] was added and the plates were incubated for an additional 2 hrs at 25° C. After an incubation at room temperature for 2 h, the HTRF readout was performed. Then data evaluation for normalization against the 10 μM Batimastat control (=100% […]) was applied.

[6] = test system: TGFα release from HEK-293 cells; assay: Counter screen (Example 4b): PMA-stimulated TGFα release from HEK-293 cells, AP readout; conditions: Homo sapiens, HEK293, HEK-293 cells expressing TGFα-AP, PMA 100 ng/mL, 2 h
Experimental: as §1, §6
as §3, with “(BB94, 10” for “(30”
as §7, with “for TGF-AP” for “for KL2-AP”, “cells (20,000/well)” for “cells (40,000/well)”, “and 12” for “and 3”, “well plate.” for “well plate and 9 μL of AP Balance Buffer was added per well.”

For `COc1ccccc1-c1c(-c2ccccc2C)ncn1C1CC(C)(C)N(C)C(C)(C)C1` [Compound 39], the IC50 [1] was > 128 µM, the IC50 [2] was > 128 µM and the IC50 [3] was 41.5 µM.

`CC(C)c1nccc(-c2c(-c3ccccc3)ncn2C[C@H]2CCCN2)n1` [Compound 40] was tested, and the IC50 [1] was > 128 µM, the IC50 [2] was > 128 µM and the IC50 [3] was 21 µM.

In the case of `CC(C)c1nccc(-c2c(-c3ccccc3)ncn2C[C@H]2CCCO2)n1` [Compound 41], the IC50 [1] is reported as > 128 µM, the IC50 [2] is reported as > 128 µM and the IC50 [3] is reported as 11.6 µM.

In the case of `Cc1nc[nH]c1-c1nccn1-c1ccc2c(c1)CCC2` [Compound 42], the IC50 [1] is reported as > 128 µM, the IC50 [2] is reported as > 128 µM and the IC50 [3] is reported as 31 µM.

In the case of `O=C(c1c(Cl)cccc1Cl)N1CCC(Cc2ccc3c(c2)OCO3)CC1` [Compound 43], the IC50 [4] is reported as 35.2 µM, the IC50 [5] is reported as 3.97 µM and the IC50 [6] is reported as > 40 µM.

In the case of `O=C(NCCc1cccnc1)c1ccc(-c2cc(-c3ccc(N4CCCCC4)cc3)n[nH]2)cc1` [Compound 44], the IC50 [4] is reported as > 40 µM, the IC50 [5] is reported as 10.8 µM and the IC50 [6] is reported as > 40 µM.

In the case of `Cc1ccsc1C1Nc2ccc3ccccc3c2C2=C1C(=O)CCC2` (stereo not drawn) [Compound 45], the IC50 [4] is reported as 28 µM, the IC50 [5] is reported as > 32 µM and the IC50 [6] is reported as > 40 µM.

`O=C1Nc2ccccc2/C1=N\Nc1nc(Nc2ccccc2)nc(Nc2ccccc2)n1` [Compound 46] was tested, and the IC50 [4] was 11.1 µM, the IC50 [5] was 2.72 µM and the IC50 [6] was > 40 µM.

`O=C(NC1CCCCCCC1)C1CCCN(c2nc3ccc(Br)cc3[nH]2)C1` (stereo not drawn) [Compound 47] was tested, and the IC50 [4] was 5.52 µM, the IC50 [5] was 2.41 µM and the IC50 [6] was > 40 µM.

`Cc1cc(NCCCn2ccnc2)n2ncc(-c3ccc(Cl)cc3)c2n1` [Compound 48] was tested, and the IC50 [4] was > 40 µM, the IC50 [5] was 13.2 µM and the IC50 [6] was > 40 µM.

`Cc1cc(C)c2nc(N3CCNCC3)sc2c1` [Compound 49] was tested, and the IC50 [4] was > 40 µM, the IC50 [5] was 13.2 µM and the IC50 [6] was > 40 µM.

For `Cc1ccccc1Nc1nc(NCCCO)nc2c1cnn2-c1ccccc1` [Compound 50], the IC50 [4] was 16.1 µM, the IC50 [5] was 10.9 µM and the IC50 [6] was > 40 µM.
